Data set [1] has as its target T1, Prostaglandin F (FP) Receptor (Homo sapiens, UniProt P43088).
T1 construct: host or cells: Ca2+ optimized hematopoietic cell lines (rat)
Kind of data set: Ca2+ assay (FLIPR) for the GPCR prostaglandin F (FP) receptor, agonist and antagonist mode. It counts as cell-based. As for the experimental part: Biological and Pharmacological Methods 1. Ca^2+ Assays for the GPCRs Motilin Receptor, Prostaglandin F (FP) Receptor, 5-hydroxytryptamine 2B (5-HT2B) Receptor, and Purinoreceptor P2Y1
Assays were performed using on a FLIPR^TETRA fluorometric imaging plate reader (Molecular Devices) with ScreenWorks Version 2 (Molecular Devices) as device operating and data analysis software.
Dose dependent agonist and antagonist activities were determined. Percentage activation and percentage inhibition values were determined.
Percentage activation was determined upon initial addition of the sample compounds followed by 10 minutes incubation at 25° C. Following compound incubation, reference agonists were added at EC80 to determine percentage inhibition.
Reference agonists were purchased from reputable commercial vendors and prepared according to each ligand's specifications. All handling of ligands were done to ensure proper control throughout the experiments.
Example compounds were weighed on a Microbalance (Mettler MX5) and dissolved in 100% DMSO to a final concentration of 2.5 mM and subsequently diluted into the assay buffer.
The Assay buffer was a supplemented HBSS (Hank's Balanced Salt Solution). HBSS was supplemented with 20 mM HEPES (4-(2-hydroxyethyl)-piperazin-1-ethansulfonic acid) and 2.5 mM Probenecid (Sigma P8761).
GPCR assays were performed using Ca^2+ optimized hematopoietic cell lines (rat) with cultures never exceeding 90% confluency. Cells were harvested and seeded (from cultures at less than 90% confluency) at 50000 cells/well for a 96-well plate (12500 cells/well for 384). After seeding, the assay plates were incubated for forty-five (45) minutes at room temperature. After room temperature incubation, the assay plates were incubated at 37° C. 5% CO2 for 24 hours prior to assaying.
All GPCR assays were performed using Fluo-8 Ca^2+ dye. Ca^2+ dye was prepared at 1× dye concentration in GPCR assay buffer. After 24 hours of incubation, cells were washed with GPCR assay buffer, and then Ca^2+-dye (100 μL/well) was added.
The plates were incubated for 90 minutes at 30° C. 5% CO2 prior to FLIPR assay.
Compound plates were prepared to add 50 μL/well during the agonist assay mode. During the FLIPR assay, 50 μL/well from the compound plate was diluted 3-fold into the existing 100 μL/well from the dye loading step. Therefore all compounds were prepared as 3× the final concentration desired in the assay.
After completion of the first single addition assay run, assay plate was removed from the FLIPR Tetra and placed at 25° C. for seven (7) minutes before antagonist assay.
Using the EC80 values determined during the agonist assay, all pre-incubated sample compound and reference antagonist (if applicable) wells were stimulated at the EC80 of the reference agonist. As reference ligands for the first three assays their obvious natural ligands motilin, prostaglandin F2α, and serotonin (5-HT, 5-Hydroxytryptamine) were used; and for the P2Y1 assay 2MeSATP (2-methyl-thio-adeno-sine 5′-triphosphate, i.e. (2R,3S,4R)-5-(6-amino-2-methylsulfanyl-purin-9-yl)-3,4-dihydroxy-tetrahydrofuran-2-yl]methyl (hydroxy-phosphonooxy-phosphoryl)hydrogen phosphate) was applied.
After the addition of the reference agonist fluorescence was monitored for 180 sec using FLIPR Tetra.
Data Analysis and Results:
From the FLIPR data, with negative control correction enabled, the maximum statistic for each well was exported and percentage activation relative to Emax control was calculated.

The nature of data set [2]: Metabolic stability assay, human microsomes. The format is in vitro ADME. Particulars: human, microsomes; for half-life at 10 µM: both sexes; for Metabolic Stability 60 min hum [% remain.] / Metabolic Stability T½ [min] hum: both, 10 µM; for Metabolic Stability 60 min hum [% remain.]: 1 h. As for the experimental part:
(§1) 4. Plasma and Metabolic Stability Assays
(§2) The assays were conducted according to literature precedents (F. P. Guengerich, Analysis and Characterization of Enzymes; in: Principles and Methods of Toxicology; A. W. Hayes (Ed.) Raven Press: New York, 1989, 777-813; R. Singh et al., In vitro metabolism of a potent HIV-protease inhibitor (141W94) using rat, monkey and human liver S9, Rapid Commun. Mass Spectrom. 1996, 10, 1019-1026).
(§3) Metabolic Stability Assay
(§4) Microsomes from a human 50 donor mixed gender pool and 1:1 mixtures of microsomes from CD-1 mouse single-gender pools are purchased from Celsis (Belgium). The enzymatic reaction is performed in a buffer containing an NADPH regeneration system and microsomes with the following end concentrations: 100 mM potassium phosphate buffer (all from Sigma), 1 mg/mL glucose-6-phosphate, 1 mg/mL β-nicotinamide adenine dinucleotide phosphate (NADP), 0.65 mg/mL magnesium chloride, 0.8 units/mL of glucose-6-phosphate dehydrogenase (prediluted with 5 mM citrate buffer), 10 μM compound and 1 mg/ml microsomal protein. Compounds are incubated at 37° C. in duplicates and samples are taken after 0, 20 and 60 minutes. After acetonitrile precipitation (2 volumes) and HPLC/MS/MS analysis metabolic turnover is expressed in % of the initial 0 minutes value and half life T½ (min) is calculated. Verapamil for human and propranolol for mouse are used as reference and are assayed with every experimental set.

Data set [3] can be described thus: in vitro. It counts as in vitro ADME, mouse. Conditions: both, CD-1, mouse, plasma, 10 µM; for Plasma Stability 240 min mouse [% remain.]: 4 h.
Data set [4] in a line: Metabolic stability assay, CD-1 mouse microsomes. It counts as in vitro ADME. Particulars: CD-1, mouse, microsomes; for Metabolic Stability 60 min mouse [% remain.] / Metabolic Stability T½ [min] mouse: both, 10 µM; for Metabolic Stability 60 min mouse [% remain.]: 1 h. As for the experimental part:
as §1, §2, §3, §4

The nature of data set [5]: in vitro. It counts as in vitro ADME, human. Particulars: human, plasma, 10 µM; for Plasma Stability 240 min hum [% remain.]: 4 h.

Bounds are passed on as bounds.
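Throughout, for Plasma Stability 240 min mouse [% remain.]: sodium citrate stabilized mouse plasma, parent compound quantified by HPLC/MS/MS relative to its peak area at time zero, run in triplicate.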
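Throughout, for Plasma Stability T½ [min] mouse: sodium citrate stabilized mouse plasma, parent compound quantified by HPLC/MS/MS relative to its peak area at time zero, run in triplicate.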

T1 sequence (P43088 whole entry): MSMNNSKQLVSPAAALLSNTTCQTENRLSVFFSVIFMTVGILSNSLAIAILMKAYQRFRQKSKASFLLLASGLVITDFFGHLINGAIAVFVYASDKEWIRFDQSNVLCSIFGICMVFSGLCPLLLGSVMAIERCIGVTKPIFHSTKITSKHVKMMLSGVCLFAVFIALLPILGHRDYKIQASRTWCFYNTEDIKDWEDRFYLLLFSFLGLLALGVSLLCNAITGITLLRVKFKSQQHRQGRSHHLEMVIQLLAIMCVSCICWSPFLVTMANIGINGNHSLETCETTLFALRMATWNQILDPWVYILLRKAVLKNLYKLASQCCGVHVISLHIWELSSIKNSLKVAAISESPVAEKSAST

As to `CN1CCC[C@H](NC(=O)Cc2ccc3ccccc3c2)C(=O)N2C[C@@H](NC(=O)Cc3ccc4ccccc4c3)C[C@H]2COc2cccc(c2)C1=O` [Ex. 186, N-[(4S,6S,10S)-14-methyl-10-{[2-(2-naphthyl)acetyl]amino}-9,15-dioxo-2-oxa-8,14-diazatricyclo[14.3.1.0^4,8]icosa-1(20),16,18-trien-6-yl]-2-(2-naphthyl)acetamide], in data set [1], the concentration for half-maximal inhibition (IC50) came to 1200 nM and the inhibition at 10 µM is 53%.
Turning to `CN(C)c1cccc(NC(=O)N[C@H]2C[C@H]3COc4cccc(c4)C(=O)NCCC[C@H](NC(=O)Cc4ccc5ccccc5c4)C(=O)N3C2)c1` [Ex. 386, N-[(4S,6S,10S)-6-({[3-(dimethylamino)anilino]carbonyl}amino)-9,15-dioxo-2-oxa-8,14-diazatricyclo[14.3.1.0^4,8]icosa-1(20),16,18-trien-10-yl]-2-(2-naphthyl)acetamide], in data set [1], the half-maximal inhibitory concentration (IC50) came out at 2700 nM and 10 µM produced 85% inhibition.
The corresponding values for `O=C(Cc1ccc2ccccc2c1)N[C@H]1C[C@H]2COc3cccc(c3)C(=O)NCCC[C@H](NC(=O)OCc3ccccc3)C(=O)N2C1` [Ex. 388, benzyl N-[(4S,6S,10S)-6-{[2-(2-naphthyl)acetyl]amino}-9,15-dioxo-2-oxa-8,14-diazatricyclo[14.3.1.0^4,8]icosa-1(20),16,18-trien-10-yl]carbamate] are 320 nM and 99%.
`CCCCCCCCCC(=O)N[C@H]1CCCNC(=O)c2cccc(c2)OC[C@@H]2C[C@H](NC(=O)Cc3ccc4ccccc4c3)CN2C1=O` [Ex. 391, N-[(4S,6S,10S)-6-{[2-(2-naphthyl)acetyl]amino}-9,15-dioxo-2-oxa-8,14-diazatricyclo[14.3.1.0^4,8]icosa-1(20),16,18-trien-10-yl]decanamide]: in data set [1], the IC50 came to 250 nM and the inhibition at 10 µM was determined as 93%.
For `CCCCCCCCCC(=O)N[C@H]1CCCN(C)C(=O)c2cccc(c2)OC[C@@H]2C[C@H](NC(=O)Cc3ccc4ccccc4c3)CN2C1=O` [Ex. 504, N-[(4S,6S,10S)-14-methyl-6-{[2-(2-naphthyl)acetyl]amino}-9,15-dioxo-2-oxa-8,14-diazatricyclo[14.3.1.0^4,8]icosa-1(20),16,18-trien-10-yl]decanamide], in data set [1], the IC50 is 441 nM and the inhibition at 10 µM turned out to be 62%.
In data set [1], `Cc1cccc(NC(=O)N[C@H]2CCCN(C)C(=O)c3cccc(c3)OC[C@@H]3C[C@H](NC(=O)Cc4ccc5ccccc5c4)CN3C2=O)c1` [Ex. 506, N-[(4S,6S,10S)-14-methyl-9,15-dioxo-10-[(3-toluidinocarbonyl)amino]-2-oxa-8,14-diazatricyclo[14.3.1.0^4,8]icosa-1(20),16,18-trien-6-yl]-2-(2-naphthyl)acetamide] had an IC50 of 2200 nM and an inhibition at 10 µM of 55%.
In data set [1], `CN1CCC[C@H](NC(=O)Nc2cccc(N(C)C)c2)C(=O)N2C[C@@H](NC(=O)Cc3ccc4ccccc4c3)C[C@H]2COc2cccc(c2)C1=O` [Ex. 507, N-[(4S,6S,10S)-10-({[3-(dimethylamino)anilino]carbonyl}amino)-14-methyl-9,15-dioxo-2-oxa-8,14-diazatricyclo[14.3.1.0^4,8]icosa-1(20),16,18-trien-6-yl]-2-(2-naphthyl)acetamide] gave an IC50 of 1100 nM and an inhibition at 10 µM of 51%.
On to `CN1CCC[C@H](N)C(=O)N2C[C@@H](OCc3ccc(-c4cncnc4)cc3)C[C@H]2COc2cccc(c2)C1=O` [Ex. 577, (4S,6S,10S)-10-amino-14-methyl-6-{[4-(5-pyrimidinyl)benzyl]oxy}-2-oxa-8,14-diazatricyclo[14.3.1.0^4,8]icosa-1(20),16,18-triene-9,15-dione], for which, in data set [2], the half-life at 10 µM stood at 0.783 h and the “Metabolic Stability 60 min hum [% remain.]” value is on record as 41 % remain. Moreover, in “in vitro [3]”, the Plasma Stability T½ [min] mouse is more than 240 min and the “Plasma Stability 240 min mouse [% remain.]” value was found to be 101 % remain. The molecule also yielded a half-life at 10 µM in data set [4] (both sexes) of 0.45 h. For the same molecule, in data set [4], the “Metabolic Stability 60 min mouse [% remain.]” value is listed as 25 % remain. In the data set “in vitro [5]”, the Plasma Stability T½ [min] hum is more than 240 min and the “Plasma Stability 240 min hum [% remain.]” value was determined as 87 % remain.
Consider `CN1CCC[C@H](N)C(=O)N2C[C@@H](OCc3ccc(-c4cccnc4)cc3)C[C@H]2COc2cccc(c2)C1=O` [Ex. 578, (4S,6S,10S)-10-amino-14-methyl-6-{[4-(3-pyridinyl)benzyl]oxy}-2-oxa-8,14-diazatricyclo[14.3.1.0^4,8]icosa-1(20),16,18-triene-9,15-dione], for which, in data set [2], the half-life at 10 µM is 0.867 h and the “Metabolic Stability 60 min hum [% remain.]” value is given as 46 % remain. For the same molecule, in the data set “in vitro [3]”, the Plasma Stability T½ [min] mouse is more than 240 min and the “Plasma Stability 240 min mouse [% remain.]” value is given as 86 % remain. Moreover, in data set [4], the Metabolic Stability T½ [min] mouse was more than 60 min and the “Metabolic Stability 60 min mouse [% remain.]” value is given as 55 % remain. In the data set “in vitro [5]”, the Plasma Stability T½ [min] hum is more than 240 min and the “Plasma Stability 240 min hum [% remain.]” value was 100 % remain.
Consider `CC(=O)N1CCN([C@H]2CCCN(C)C(=O)c3cccc(c3)OC[C@@H]3C[C@H](O)CN3C2=O)CC1` [Ex. 582, (4S,6S,10S)-10-(4-acetylpiperazino)-6-hydroxy-14-methyl-2-oxa-8,14-diazatricyclo[14.3.1.0^4,8]icosa-1(20),16,18-triene-9,15-dione], for which, in data set [2], the Metabolic Stability T½ [min] hum was more than 60 min and the “Metabolic Stability 60 min hum [% remain.]” value was 100 % remain. Further, in “in vitro [3]”, the Plasma Stability T½ [min] mouse was more than 240 min and the “Plasma Stability 240 min mouse [% remain.]” value turned out to be 96 % remain. Besides, in data set [4], the Metabolic Stability T½ [min] mouse was more than 60 min and the “Metabolic Stability 60 min mouse [% remain.]” value is 98 % remain. Moreover, in the data set “in vitro [5]”, the Plasma Stability T½ [min] hum is more than 240 min and the “Plasma Stability 240 min hum [% remain.]” value amounted to 100 % remain.
Consider `CN1CCC[C@H](N2CCN(S(C)(=O)=O)CC2)C(=O)N2C[C@@H](O)C[C@H]2COc2cccc(c2)C1=O` [Ex. 583, (4S,6S,10S)-6-hydroxy-14-methyl-10-[4-(methylsulfonyl)piperazino]-2-oxa-8,14-diazatricyclo[14.3.1.0^4,8]icosa-1(20),16,18-triene-9,15-dione], for which, in data set [2], the Metabolic Stability T½ [min] hum is more than 60 min and the “Metabolic Stability 60 min hum [% remain.]” value was found to be 100 % remain. In the data set “in vitro [3]”, the Plasma Stability T½ [min] mouse is more than 240 min and the “Plasma Stability 240 min mouse [% remain.]” value came to 83 % remain. Further, in data set [4], the Metabolic Stability T½ [min] mouse was more than 60 min and the “Metabolic Stability 60 min mouse [% remain.]” value was 95 % remain. In addition, in “in vitro [5]”, the Plasma Stability T½ [min] hum is more than 240 min and the “Plasma Stability 240 min hum [% remain.]” value was found to be 91 % remain.

(Values after patent publication US9512139B2, “Conformationally constrained, fully synthetic macrocyclic compounds” (POLYPHOR AG, priority 2009, dated 2016).)
